Assay results from ChEMBL document CHEMBL6134780, “Halogenated retinoid derivatives as dual RARα and RXRα modulators for treating acute promyelocytic leukemia cells” (Eur J Med Chem, 2024).
The source made the active and inactive calls. No cut-off for these calls is given here.

Experiments:
Type in all cases: functional
[1] = Cell cycle arrest in human ATRA-resistant NB4-LR2 cells assessed as accumulation of cells at S phase at 2 uM incubated for 12 hrs by DAPI staining based flow cytometric analysis (reference value: 19 %)
NB-4 [2] = test: Cell cycle arrest in human NB4 cells assessed as accumulation of cells at G2/M phase at 2 uM incubated for 12 hrs by DAPI staining based flow cytometric analysis (reference value: 21 %)
[3] = Cell cycle arrest in human ATRA-resistant NB4-LR2 cells assessed as accumulation of cells at G2/M phase at 2 uM incubated for 24 hrs by DAPI staining based flow cytometric analysis (reference value: 25 %)
NB-4 [4] = test: Cell cycle arrest in human NB4 cells transfected with pLVX-shRNA2-negative control assessed as accumulation of cells at G0/G1 phase at 1 uM incubated for 12 hrs by DAPI staining based flow cytometric analysis (reference value: 46 %)
NB-4 [5] = test: Cell cycle arrest in human NB4 cells transfected with pLVX-shRNA2-negative control assessed as accumulation of cells at G2/M phase at 1 uM incubated for 12 hrs by DAPI staining based flow cytometric analysis (reference value: 24 %)
[6] = Cell cycle arrest in human ATRA-resistant NB4-LR2 cells assessed as accumulation of cells at S phase at 0.5 uM incubated for 24 hrs by DAPI staining based flow cytometric analysis (reference value: 21 %)
[7] = Cell cycle arrest in human ATRA-resistant NB4-LR2 cells assessed as accumulation of cells at G2/M phase at 2 uM incubated for 12 hrs by DAPI staining based flow cytometric analysis (reference value: 15 %)
NB-4 [8] = test: Cell cycle arrest in human NB4 cells transfected with pLVX-shRNA2-negative control assessed as accumulation of cells at G0/G1 phase at 2 uM incubated for 12 hrs by DAPI staining based flow cytometric analysis (reference value: 46 %)
NB-4 [9] = test: Cell cycle arrest in human NB4 cells transfected with pLVX-shRXRalpha plasmid assessed as accumulation of cells at G0/G1 phase at 1 uM incubated for 12 hrs by DAPI staining based flow cytometric analysis (reference value: 53 %)
[10] = Cell cycle arrest in human ATRA-resistant NB4-LR2 cells assessed as accumulation of cells at S phase at 2 uM incubated for 3 hrs by DAPI staining based flow cytometric analysis (reference value: 19 %)
[11] = Cell cycle arrest in human ATRA-resistant NB4-LR2 cells assessed as accumulation of cells at G2/M phase at 1 uM incubated for 24 hrs by DAPI staining based flow cytometric analysis (reference value: 25 %)
[12] = Cell cycle arrest in human ATRA-resistant NB4-LR2 cells assessed as accumulation of cells at S phase at 2 uM incubated for 24 hrs by DAPI staining based flow cytometric analysis (reference value: 21 %)
NB-4 [13] = test: Cell cycle arrest in human NB4 cells transfected with pLVX-shRNA2-negative control assessed as accumulation of cells at sub-G1 phase at 1 uM incubated for 12 hrs by DAPI staining based flow cytometric analysis (reference value: 4 %)
NB-4 [14] = test: Cell cycle arrest in human NB4 cells transfected with pLVX-shPML-RARalpha plasmid assessed as accumulation of cells at S phase at 1 uM incubated for 12 hrs by DAPI staining based flow cytometric analysis (reference value: 19 %)
NB-4 [15] = test: Cell cycle arrest in human NB4 cells assessed as accumulation of cells at G0/G1 phase at 2 uM incubated for 24 hrs by DAPI staining based flow cytometric analysis (reference value: 48 %)
ATRA-resistant NB4-LR2 [16] = test: Cell cycle arrest in human ATRA-resistant NB4-LR2 cells assessed as accumulation of cells at G2/M phase at higher concentration by DAPI staining based flow cytometric analysis
ATRA-resistant NB4-LR2 [17] = test: Cell cycle arrest in human ATRA-resistant NB4-LR2 cells assessed as accumulation of cells at G2/M phase at 2 uM incubated for 3 to 12 hrs by DAPI staining based flow cytometric analysis; conditions: time 3-12 hrs

Row | Structure (SMILES) | Activity [1] [%] | Activity (NB-4 [2]) [%] | Activity [3] [%] | Activity (NB-4 [4]) [%] | Activity (NB-4 [5]) [%] | Activity [6] [%] | Activity [7] [%] | Activity (NB-4 [8]) [%] | Activity (NB-4 [9]) [%] | Activity [10] [%] | Activity [11] [%] | Activity [12] [%] | Activity (NB-4 [13]) [%] | Activity (NB-4 [14]) [%] | Activity (NB-4 [15]) [%] | Activity (ATRA-resistant NB4-LR2 [16]) | Activity (ATRA-resistant NB4-LR2 [17])
1 | Cc1cc2c(cc1C(=O)/C(Br)=C/c1ccc(C(=O)O)cc1)C(C)(C)CCC2(C)C | 10 | 62 | 23 | 30 | 54 | 12 | 22 | 30 | 36 | 6 | 30 | 22 | 7 | 21 | 35 |  | 
2 | Cc1cc2c(cc1C(=O)/C(Br)=C\c1ccc(C(=O)O)cc1)C(C)(C)CCC2(C)C |  |  |  |  |  |  |  |  |  |  |  |  |  |  |  | Active | Active
